Where a name gives a salt, the structure may show the parent alone.

The assay has as its system EHV-4 405/76 reference strain. Description: RTCA. The format is cell-based, Equid herpesvirus 4. The following applies: area under normalized Cell Index curves, 0-120 hpi, EHV-4-infected E. Derm cells.

On to `C[C@@]1(O)[C@H](O)[C@@H](CO)O[C@H]1n1ccc(N)nc1=O` [2′-C-methylcytidine], for which the AUCn is 37.52 (0.4 µM), 35.13 (2 µM), 26.93 (10 µM) and 30.32 (50 µM).

Regarding `Nc1nc(NC2CC2)c2ncn([C@H]3C=C[C@@H](CO)C3)c2n1` [Abacavir sulfate], the AUCn was found to be 38.16 (0.4 µM), 32.21 (2 µM), 31.76 (10 µM) and 32.99 (50 µM).

With `[H]/N=C(\N/C(=N/[H])Nc1ccc(Cl)cc1)NC(C)C` [Proguanil hydrochloride], the AUCn is recorded as 34.82 (0.4 µM), 36.10 (2 µM), 38.33 (10 µM) and 59.56 (50 µM).

On to `CCC(C)(C)C(=O)O[C@H]1C[C@@H](C)C=C2C=C[C@H](C)[C@H](CC[C@@H]3C[C@@H](O)CC(=O)O3)[C@H]21` [Simvastatin], for which the AUCn stood at 34.65 (0.4 µM), 32.56 (2 µM), 24.99 (10 µM) and 20.58 (50 µM).

Turning to `Sc1ncnc2nc[nH]c12` [6-mercaptopurine], the AUCn was 39.53 (0.4 µM), 37.02 (2 µM), 28.97 (10 µM) and 27.72 (50 µM).

Take `O=c1[nH]c(=O)n([C@H]2C[C@H](O)[C@@H](CO)O2)cc1/C=C/Br` [Brivudine]: the AUCn runs as follows: (0.4 µM) 28.13; (2 µM) 30.37; (10 µM) 31.74; (50 µM) 36.82.

Take `Cc1ccc2c(=O)c3cccc(CC(=O)O)c3oc2c1C` [DMXAA]: the AUCn by setting is: (0.4 µM) 36.50; (2 µM) 37.99; (10 µM) 41.23; (50 µM) 60.10.

On to `CC(C)n1c(/C=C/C(O)CC(O)CC(=O)O)c(-c2ccc(F)cc2)c2ccccc21` (stereo not drawn) [Fluvastatin], for which the AUCn runs as follows: (0.4 µM) 33.08; (2 µM) 16.45; (10 µM) 11.66; (50 µM) 13.86.

Regarding `NCCCC(N)(C(=O)O)C(F)F` (stereo not drawn) [Eflornithin (dfmo), Eflornithin], the AUCn (0.4 µM) amounted to 44.63, the AUCn (2 µM) is on record as 32.10, the AUCn (10 µM) is on record as 30.27 and the AUCn (50 µM) stood at 32.46.

As to `O=c1[nH]cnc2c1ncn2[C@H]1CC[C@@H](CO)O1` [Didanosine], the AUCn stood at 37.77 (0.4 µM), 36.23 (2 µM), 29.27 (10 µM) and 38.91 (50 µM).

For the compound `NC(=O)c1nc(F)c[nH]c1=O` [Favipiravir], the AUCn by setting is: (0.4 µM) 30.35; (2 µM) 41.18; (10 µM) 37.23; (50 µM) 74.44.

Take `Nc1nc(=O)n([C@@H]2CS[C@H](CO)O2)cc1F` [Emtricitabine]: the AUCn by setting is: (0.4 µM) 36.81; (2 µM) 35.47; (10 µM) 34.12; (50 µM) 37.28.

Regarding `CCOC(=O)c1c(CSc2ccccc2)n(C)c2cc(Br)c(O)c(CN(C)C)c12` [Arbidol], the AUCn turned out to be 31.88 (0.4 µM), 39.33 (2 µM), 37.59 (10 µM) and 35.06 (50 µM).

Regarding `Nc1nc2c(ncn2CCC(CO)CO)c(=O)[nH]1` [Penciclovir], the AUCn is given as 36.54 (0.4 µM), 33.23 (2 µM), 30.15 (10 µM) and 42.37 (50 µM).

Turning to `CC[C@H](C)C(=O)O[C@H]1C[C@H](O)C=C2C=C[C@H](C)[C@H](CC[C@@H](O)C[C@@H](O)CC(=O)O)[C@H]21` [Pravastatin], the AUCn is listed as 45.23 (0.4 µM), 36.52 (2 µM), 37.85 (10 µM) and 30.29 (50 µM).
